# According to paper PMC11407758, “Integrated stress response (ISR) activation and apoptosis through HRI kinase by PG3 and other p53 pathway-restoring cancer therapeutics” (Oncotarget, 2024):
# Columns and labels:
# [1] = tested on: GCN2, PKR, eIF2α, ATF4, CHOP in HT29 cells; assay: Western blot, ISR kinases / eIF2α / ATF4 / CHOP; format: cell-based, human
# Protocol: Figure 7 PG3 induces upregulation of ATF4 through ISR via HRI. (A) HT29 cells were treated with PG3, GSK2606414, TG and ONC201 respectively, or co-treatment with PG3/GSK2606414, PG3/TG, and PG3/ONC201 for 15 h. (B) MEF, MEF^PERK−/− and MEF^GCN2−/− cells were treated with PG3 and ONC201 for 16 hours. (C) HT29 cells were transfected with siControl, siPKR, siHRI and siPKR/siHRI for 24 hours and then treated with PG3 for 16 hours. (D) HCT116 p53^−/− cells were transfected with siControl and siHRI for 24 hours and then treated with PG3 for 16 hours. (E) HCT116 p53^−/− cells were treated with PG3 and ONC201 for indicated times. (F) PANC1-sgCtrl, -sgHRI and -sgPKR cell lines were treated with PG3 and imipridones (ONC201, ONC206 and ONC212) for 16 hours. Western blot was performed using indicated antibodies. (G) Proposed model of PG3-induced cell apoptosis through HRI/ATF4/PUMA axis. Abbreviation: L.E.: Long exposure.
# (§1) After treatment, protein lysates were collected for Western blot analysis. A total of 15 μg of protein was used for SDS-PAGE. After primary and secondary antibody incubations, the signal was detected by a chemiluminescence detection kit, imaged by Syngene (Imgen Technologies). Antibodies for NAG-1 (GDF15) and P53 were from Santa Cruz Biotechnology; for caspase 8, cleaved caspase 8, caspase 9, caspase 3, cleavage PARP, eIF2α, p-eIF2α (Ser51), CHOP, ATF4, DR5, and PUMA were from Cell Signaling Technology. Noxa and p21 were from Calbiochem. Ran was from BD Biosciences.
# Supplementary Figure 2: ROS and NO are not responsible for PG3-induced HRI activation. (A, B) cells were pre-treated
# with ZnPP, L-NMMA, SA and NAC for 2 hours respectively, and then ONC201 or PG3 was added to the medium for 24 hour treatment.
# Western blot was performed using indicated antibodies.
# (1 picture or pasted object on this page, not shown here)
# [2] = tested on: HRI; set-up: method as in PMID 22827572; details: cited from earlier work
# [3] = tested on: HT29 (R273H); assay: Cell viability assay (CellTiterGlo), HT29; format: cell-based, human
# Protocol: (§2) Figure 1 PG3 inhibits cell proliferation and growth in a p53-indepent manner. (A–E) Cell viability assay, dose response curves and IC50 value measurements in a panel of cancer cell lines and normal cells. Cells were treated with different concentrations of PG3, PG3-Oc (Oc), obatoclax (Ob), prodigiosin (P) or DMSO for 72 h. Luciferase activity was imaged by the IVIS Imaging System after treatment. Cell viability data were normalized to those of DMSO treatment control in each cell line and data analyses were performed using PRISM4 software. IC50 data are expressed as the mean ±SD (normal; n = 3).
# as §2, with “2 p53-dependent inhibition of” for “1 PG3 inhibits”, “is only observed at specific concentrations. (A–J)” for “and growth in a p53-indepent manner. (A–E)”, “ZMC1, CP-313908, APR-246, Ellipticine, Nutalin-3a” for “PG3, PG3-Oc (Oc), obatoclax (Ob), prodigiosin (P)”
# (§3) Cells were seeded in 96-well plates (6 × 10^3 cells/well). Cells were treated with different concentrations of compounds or dimethyl sulfoxide (DMSO) as a control for 72 hours. The cell viability was assessed by CellTiterGlo bioluminescent cell viability assay (Promega), following the manufacturer’s protocol. Bioluminescence imaging was measured using the IVIS imager. The percentage of cell viability (mean ± SEM) at each dose was calculated against the respective DMSO control. The IC50 values were determined from the sigmoidal dose-response curves using GraphPad Prism.
# [4] = tested on: HCT116 (R175H); assay: Cell viability assay (CellTiterGlo), HCT116 R175H; format: cell-based, human
# Protocol: as §2
# as §2, with “2 p53-dependent inhibition of” for “1 PG3 inhibits”, “is only observed at specific concentrations. (A–J)” for “and growth in a p53-indepent manner. (A–E)”, “ZMC1, CP-313908, APR-246, Ellipticine, Nutalin-3a” for “PG3, PG3-Oc (Oc), obatoclax (Ob), prodigiosin (P)”
# as §3
# [5] = tested on: HFF-1 (human foreskin fibroblast cell with wild-type p53); assay: Cell viability assay (CellTiterGlo), HFF-1 normal cells; format: cell-based; details: 72 h, CellTiterGlo, normal cells; read-out: IC50 values, HFF-l (WT)
# Protocol: as §2
# as §2, with “2 p53-dependent inhibition of” for “1 PG3 inhibits”, “is only observed at specific concentrations. (A–J)” for “and growth in a p53-indepent manner. (A–E)”, “ZMC1, CP-313908, APR-246, Ellipticine, Nutalin-3a” for “PG3, PG3-Oc (Oc), obatoclax (Ob), prodigiosin (P)”
# as §3
# [6] = tested on: MRC5 (human lung fibroblast cell with wild-type p53); assay: Cell viability assay (CellTiterGlo), MRC5 normal cells; format: cell-based; details: 72 h, read-out: IC50 values, MRC5 (WT)
# Protocol: as §2
# as §2, with “2 p53-dependent inhibition of” for “1 PG3 inhibits”, “is only observed at specific concentrations. (A–J)” for “and growth in a p53-indepent manner. (A–E)”, “ZMC1, CP-313908, APR-246, Ellipticine, Nutalin-3a” for “PG3, PG3-Oc (Oc), obatoclax (Ob), prodigiosin (P)”
# as §3
# [7] = tested on: SW480 cells carrying a p53-responsive luciferase reporter; assay: p53-responsive reporter assay; format: cell-based, human; details: 30 μM, 15 hour time point
# Protocol: SW480 cells carrying a p53-responsive luciferase reporter were used for assay of functional restoration of mutant p53. Cells were seeded in 96-well plates (5 × 10^4 cells/well) and were treated with compounds indicated for 6 and 15 h, respectively. Then, D-luciferin was added to each well with final concentration 100 μg/mL, and cells were imaged by using an IVIS Imaging System to detect luciferase activity.
# p53-mutant SW480 human colon cancer cells, stably expressing a p53-responsive luciferase reporter, were used to assay functional restoration p53 pathway-dependent transcription in mutant p53-expressing tumor cells. Cells were seeded in 96-well plates (5 × 10^4 cells/well) and were treated with small-molecule compounds for 6 and 15 h, respectively. Then, D-luciferin was added to each well at a final concentration of 100 μg/mL, and cells were imaged by using an IVIS Imaging System (Xenogen) to detect luciferase activity.
# [8] = tested on: ATF4; assay: Western blot, ATF4 induction; format: cell-based, human; details: 24 h
# Protocol: (§4) Figure 4 Activation of ATF4 and up-regulation of typical p53 target genes. (A–E) Western blot analysis of p53 protein levels and upregulation of ATF4, PUMA, DR5 and p21. Cells were treated for 24 h with indicated compounds, concentrations and cell lines. Abbreviations: S.E.: Short exposure; L.E.: Long exposure.
# as §1
# [9] = tested on: p53 protein; assay: Western blot, p53 protein levels; format: cell-based, human
# Protocol: Cells were treated for 24 h with indicated compounds, concentrations and cell lines. Abbreviations: S.E.: Short exposure; L.E.: Long exposure.
# as §1
# [10] = tested on: DR5; assay: Western blot, DR5 induction; format: cell-based, human
# Protocol: as §4, §1
# [11] = tested on: PUMA; assay: Western blot, PUMA induction; format: cell-based, human
# Protocol: as §4, §1
# [12] = tested on: p21; assay: Western blot, p21 induction; format: cell-based, human
# Protocol: as §4, §1
structure (smiles),measurement,setting,value
"Cn1cc(-c2ccc3c(c2)CCN3C(=O)Cc2cccc(C(F)(F)F)c2)c2c(N)ncnc21 [GSK2606414, 7-methyl-5-(1-{[3-(trifluoromethyl)phenyl]acetyl}-2,3-dihydro-1H-indol-5-yl)-7H-pyrrolo[2,3-d]pyrimidin-4-amine]",effect on ONC201-induced upregulation of ATF4 and CHOP,"[1]; HT29, co-treatment with ONC201",significantly attenuates
same,"effect on PG3-induced eIF2α phosphorylation, ATF4 and CHOP upregulation","[1]; HT29, co-treatment with PG3, 15 h",does not block
same,effect on TG-induced upregulation of ATF4 and CHOP,"[1]; HT29, co-treatment with thapsigargin",abolishes
same,IC50,[2],0.42 µM
COc1ccc(/C=C/c2nc(NCCCN(C)C)c3ccccc3n2)cc1 [CP-31398],IC50,"[3]; 72 h, CellTiterGlo",0.647 µM
same,inhibition of cell viability,"[3]; HT29, 0.04 μM",potently inhibited
same,fold more potency in HT29 than in HFF-1,[3]; HT29 vs HFF-1,12.2 fold
same,fold more potency in HT29 than in MRC5,[3]; HT29 vs MRC5,9.1 fold
same,IC50,"[4]; 72 h, CellTiterGlo",9.58 µM
same,selective inhibition among HCT116 isogenic cell lines,"[4]; HCT116-R175H compared to HCT116 (WT) and HCT116 p53–/–, 10 μM",selective inhibition
same,IC50,[5],7.92 µM
same,IC50,[6],5.92 µM
same,p53-responsive reporter activity,[7],able to activate the reporter
same,upregulation of ATF4,"[8]; HT29 and TOV-112D, compared to PG3 and PG3-Oc",more potently induces upregulation of ATF4
same,upregulation of ATF4,[8]; three isogenic HCT116 cell lines,does not upregulate ATF4
same,wild-type p53 protein level,"[9]; HCT116, 24 h",marginal stabilization
same,endogenous mutant p53 R273H protein level,"[9]; HT29, 24 h",stabilizes
same,endogenous mutant p53 R175H protein level,"[9]; TOV-112D, 24 h",marginally destabilizes
same,exogenous mutant p53 R175H protein level,"[9]; engineered HCT116-R175H cells, 24 h",no effects
same,upregulation of DR5,"[10]; HCT116 (p53 wild-type), 24 h",does not upregulate DR5
same,upregulation of DR5,"[10]; HCT116 p53-R175H, 24 h",does not upregulate DR5
same,upregulation of DR5,"[10]; HCT116 p53–/–, 24 h",does not upregulate DR5
same,upregulation of DR5,"[10]; HT29, 24 h",mildly upregulates DR5
same,upregulation of DR5,"[10]; TOV-112D, 24 h",upregulates DR5 in a comparable manner to PG3 and PG3-Oc
same,upregulation of PUMA,"[11]; HCT116 (p53 wild-type), 24 h",induces PUMA expression
same,upregulation of PUMA,"[11]; HCT116 p53-R175H, 24 h",barely
same,upregulation of PUMA,"[11]; HCT116 p53–/–, 24 h",barely
same,upregulation of PUMA,"[11]; HT29, 24 h",induces PUMA expression
same,upregulation of PUMA,"[11]; TOV-112D, 24 h",barely
same,upregulation of p21,"[12]; HCT116 (p53 wild-type), 24 h",significantly
same,upregulation of p21,"[12]; HCT116 p53-R175H, 24 h",barely
same,upregulation of p21,"[12]; HCT116 p53–/–, 24 h",barely
same,upregulation of p21,"[12]; HT29, 24 h",significantly
same,upregulation of p21,"[12]; TOV-112D, 24 h",upregulates p21 strongly
